The record followed here is ChEMBL document CHEMBL1156356, “Aromatase inhibitors from Broussonetia papyrifera” (J Nat Prod, 2001).

The test concerns the target T1, Aromatase (Homo sapiens, UniProt P11511).
T1 sequence (P11511 whole entry): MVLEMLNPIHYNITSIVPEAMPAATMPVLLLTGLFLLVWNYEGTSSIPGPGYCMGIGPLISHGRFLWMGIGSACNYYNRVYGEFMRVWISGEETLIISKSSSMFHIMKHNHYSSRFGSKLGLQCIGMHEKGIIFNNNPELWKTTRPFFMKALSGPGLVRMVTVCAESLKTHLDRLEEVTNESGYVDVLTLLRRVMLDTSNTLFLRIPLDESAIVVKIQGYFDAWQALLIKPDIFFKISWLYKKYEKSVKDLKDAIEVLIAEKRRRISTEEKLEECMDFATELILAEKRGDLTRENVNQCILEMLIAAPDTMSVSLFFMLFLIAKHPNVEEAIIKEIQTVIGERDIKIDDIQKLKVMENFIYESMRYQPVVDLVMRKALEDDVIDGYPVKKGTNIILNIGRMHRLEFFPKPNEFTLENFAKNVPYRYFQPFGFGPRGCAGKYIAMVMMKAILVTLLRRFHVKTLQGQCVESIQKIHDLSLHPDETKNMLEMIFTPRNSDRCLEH
The test can be described thus: Inhibition of aromatase from human placental microsomes.
Broadly, the IC50 is the concentration needed to halve the response being measured. Consider `O=C(/C=C/c1ccc(O)cc1O)c1ccc(O)cc1O`, for which the IC50 is above 147 µM.
The molecule `Oc1ccc(CCCc2ccc(O)cc2O)cc1` gave an IC50 above 164 µM.
As to `CC(C)=CCc1cc([C@@H]2CCc3ccc(O)cc3O2)ccc1O`, the IC50 was above 129 µM.
For `CC(C)=CCC/C(C)=C/Cc1c(O)cc2oc(-c3ccc(O)c(O)c3)c(O)c(=O)c2c1O` the value was above 91.2 µM; for `COc1c(-c2ccc(O)c(O)c2)oc2cc(O)c(C/C=C(\C)CCC=C(C)C)c(O)c2c1=O`, above 88.4 µM; for `CC(C)=CCc1c(O)ccc(CCCc2ccc(O)cc2)c1O`, above 128 µM.
For `CC(C)(O)C1Cc2c(ccc3c2O[C@H](c2ccc(O)cc2O)CC3=O)O1` (some centres undefined) the value was 0.1 µM; for `CC(C)=CCc1cc(C2CC(=O)c3c(O)cc(O)cc3O2)ccc1O` (centres undefined), 0.4 µM; for `CC(C)=CCc1c(O)ccc2c1O[C@H](c1ccc(O)cc1O)CC2=O`, 3.4 µM.
For `Oc1ccc([C@@H]2CCc3ccc(O)cc3O2)cc1` the value was above 165 µM.
`COc1cc(O)ccc1CCCc1ccc(O)c(CC=C(C)C)c1` displayed an IC50 above 123 µM.
For `CC(C)=CCc1cc([C@H]2Oc3c(CC=C(C)C)c(O)cc(O)c3C(=O)[C@@H]2O)ccc1O` the value was above 94.2 µM; for `O=c1ccc2c(o1)CCCC2`, above 266 µM; for `CC1=C[C@@H]2c3c(O)cc(-c4cc5ccc(O)cc5o4)cc3O[C@]3(c4ccc(O)cc4O)Oc4cc(O)ccc4[C@@H](C1)C23` (some centres undefined) [ALBANOL A], 7.5 µM.
As to `CC(C)=CCc1cc2c(cc1O)O[C@H](c1ccc(O)cc1)CC2=O` [BAVACHIN], the half-inhibitory concentration (IC50) was above 123 µM.
In turn, `CC(C)=CCc1cc(C(=O)/C=C/c2ccc(O)c(O)c2)c(O)cc1O` [BROUSSOCHALCONE A] had a half-maximal inhibitory concentration (IC50) above 118 µM.
The same measure for `CC(C)=CCc1cc(C(=O)/C=C/c2ccc(O)cc2)c(O)cc1O` [BROUSSOCHALCONE B]: above 123 µM.
For `CC(C)=CCc1cc(-c2oc3c(CC=C(C)C)c(O)cc(O)c3c(=O)c2O)ccc1O` [BROUSSOFLAVONOL F] the value was 9.7 µM; for `COc1ccc(CCCc2ccc(O)cc2)c(O)c1` [BROUSSONIN A], 30 µM; for `COc1cc(O)ccc1CCCc1ccc(O)cc1` [BROUSSONIN B], above 155 µM.
For `COc1ccc(CCCc2ccc(OC)c(O)c2)c(O)c1` [BROUSSONIN E] the value was above 139 µM; for `COc1ccc(CCCc2ccc(O)c(OC)c2)c(OC)c1` [BROUSSONIN F], above 132 µM.
`CC(C)=CCc1c(O)cc(O)cc1-c1cc2ccc(O)cc2o1` [DEMETHYLMORACIN I] gave a 50% inhibitory concentration (IC50) of 31.1 µM.
For `O=C1c2c(O)cc(O)cc2O[C@H](c2ccc(O)cc2)[C@H]1O` [DIHYDROKAEMPFEROL] the value was above 139 µM; for `O=C1c2c(O)cc(O)cc2O[C@H](c2ccc(O)cc2O)[C@H]1O` [DIHYDROMORIN], above 131 µM; for `CC(C)=CCc1c(O)cc2oc(-c3ccc(O)c(O)c3)c(O)c(=O)c2c1O` [GANCAONIN P], above 108 µM.
Molecule `CC(C)=CCc1c(O)ccc(C(=O)/C=C/c2ccc(O)cc2)c1O` [ISOBAVACHALCONE] yielded an IC50 above 123 µM.
For `CC(C)=CCc1cc(-c2oc3cc(O)cc(O)c3c(=O)c2O)ccc1O` [ISOLICOFLAVONOL], the 50% inhibitory concentration (IC50) amounted to 0.1 µM.
Turning to `CC1(C)C[C@H](O)C[C@@]2(C)OC(=O)C=C12` [LOLIOLIDE], the IC50 was above 204 µM.
Regarding `CC(C)(O)[C@@H]1Cc2cc3ccc(=O)oc3cc2O1` [MARMESIN], the IC50 is above 162 µM.
For `CC1(C)C=Cc2c(O)cc(-c3cc4ccc(O)cc4o3)cc2O1` [MORACIN D] the value was above 130 µM; for `COc1cc(O)cc(-c2cc3ccc(O)cc3o2)c1CC=C(C)C` [MORACIN I], above 123 µM; for `Oc1cc(O)cc(-c2cc3ccc(O)cc3o2)c1` [MORACIN M], above 165 µM.
In the case of `CC(C)=CCc1cc2cc(-c3cc(O)cc(O)c3)oc2cc1O` [MORACIN N], the half-maximal inhibitory concentration (IC50) stood at 31.1 µM.
